Where two headings read alike, the source gives them in different places.
Key:
Ggt = experiment: In vivo Assay: control of Ggt on wheat grown in pots of Ggt-infested soil, root disease rating; set-up: species or system Gaeumannomyces graminis var. tritici; details: Gaeumannomyces graminis, 672 h, read-out: In vivo, percent disease control
Summary of the method: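 Wheat ('Bergen' or 'Anza') seeds in soil infested with Ggt-colonised oats (4% v/v) treated at 0.5 mg active ingredient per pot in acetone/water with Tween 20; five pots per treatment. After four weeks, seminal roots rated 0–5; trimmed mean of three replicates converted to percent disease control versus untreated.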

[1] = system: Gaeumannomyces graminis var. tritici (Ggt); experiment: In vitro Assay: mycelial growth of Ggt on minimal media agar plates containing test compound; format: cell-based; details: Gaeumannomyces graminis, dark, 19-20° C., 4 to 5 days, diameter of mycelial growth; for inhibition at 0.1 ppm: 0.1 ppm in minimal media agar, read-out: In vitro (ppm) 0.1, Percent Inhibition; for inhibition at 1 ppm: 1 ppm in minimal media agar, read-out: In vitro (ppm) 1, Percent Inhibition; for inhibition at 10 ppm: 10 ppm in minimal media agar, read-out: In vitro (ppm) 10, Percent Inhibition
Summary of the method: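 Ggt mycelial diameter read after 4 to 5 days in darkness at 19-20° C, from three 4-mm plugs placed on Czapek Dox minimal agar containing test compound delivered in acetone. Inhibition expressed as percent versus untreated plates, plug size (4 mm) subtracted from both.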

[2] = 0.5 mg active ingredient per pot, 'Bergen' or 'Anza' wheat in Ggt-infested soil, after four weeks, vs untreated control

CCN(CC)C(=O)c1c([Si](C)(C)C)ccc(C)c1Cl [Example 65, N,N-Diethyl-2-chloro-3-methyl-6-(trimethylsilyl)benzamide]
pest or weed control at 0.5 mg/pot (Ggt; [2]): 95%
inhibition at 0.1 ppm [1]: 39%
inhibition at 1 ppm [1]: 56%
inhibition at 10 ppm [1]: 100%

CN1CCN(C(=O)c2c(Cl)cccc2[Si](C)(C)C)CC1 [Example 133, N-[2-Chloro-6-(trimethylsilyl)benzoyl]-4-methylpiperazine]
pest or weed control at 0.5 mg/pot (Ggt; [2]): < 0%
inhibition at 0.1 ppm [1]: 13%
inhibition at 1 ppm [1]: 3%
inhibition at 10 ppm [1]: 18%

C=CCNC(=O)NC(=O)c1c(Cl)cccc1[Si](C)(C)C [Example 165, 2-Chloro-N-[(2-propenylamino)carbonyl]-6-(trimethylsilyl)benzamide]
pest or weed control at 0.5 mg/pot (Ggt; [2]): 63%
inhibition at 0.1 ppm [1]: < 0%
inhibition at 1 ppm [1]: 76%
inhibition at 10 ppm [1]: 100%

CCN(C(=O)c1ccccc1[Si](C)(C)C)C(OC)C(C)(C)C (stereo not shown) [Example 187, N-Ethyl-N-(1-methoxy-2,2-dimethylpropyl)-2-(trimethylsilyl)benzamide]
pest or weed control at 0.5 mg/pot (Ggt; [2]): 24%
inhibition at 0.1 ppm [1]: 13%
inhibition at 1 ppm [1]: 27%
inhibition at 10 ppm [1]: 97%

CCNC(=O)c1c([Si](C)(C)C)ccc(CO)c1Cl [Example 227, 2-Chloro-N-ethyl-3-(hydroxymethyl)-6-(trimethylsilyl)benzamide]
pest or weed control at 0.5 mg/pot (Ggt; [2]): 34%
inhibition at 0.1 ppm [1]: 36%
inhibition at 1 ppm [1]: 68%
inhibition at 10 ppm [1]: 100%

CCNC(=O)c1c([Si](C)(C)C)ccc(Cl)c1F [Example 218, 3-Chloro-N-ethyl-2-fluoro-6-(trimethylsilyl)benzamide]
pest or weed control at 0.5 mg/pot (Ggt; [2]): 99%
inhibition at 0.1 ppm [1]: 18%
inhibition at 1 ppm [1]: 94%
inhibition at 10 ppm [1]: 100%

CCN(C(=O)c1c(Cl)cccc1[Si](C)(C)C)C(OC)C(C)(C)C (stereo not shown) [Example 201, 2-Chloro-N-ethyl-N-(1-methoxy-2,2-dimethylpropyl)-6-(trimethylsilyl)benzamide]
pest or weed control at 0.5 mg/pot (Ggt; [2]): 65%
inhibition at 0.1 ppm [1]: 31%
inhibition at 1 ppm [1]: 50%
inhibition at 10 ppm [1]: 100%

CCNC(=O)c1cc([Si](C)(C)C)sc1[Si](C)(C)C [Example 269, N-Ethyl-2,5-bis(trimethylsilyl)-3-thiophenecarboxamide]
pest or weed control at 0.5 mg/pot (Ggt; [2]): 4%
inhibition at 0.1 ppm [1]: < 0%
inhibition at 1 ppm [1]: 91%
inhibition at 10 ppm [1]: 100%

C[Si](C)(C)c1cccc(Cl)c1C(=O)NC1CC1 [Example 34, 2-Chloro-N-cyclopropyl-6-(trimethylsilyl)benzamide]
pest or weed control at 0.5 mg/pot (Ggt; [2]): 100%
inhibition at 0.1 ppm [1]: 97%
inhibition at 1 ppm [1]: 100%
inhibition at 10 ppm [1]: 100%

CCN(CC)C(=O)c1c(C)cccc1[Si](C)(C)C [Example 3, N,N-Diethyl-2-methyl-6-(trimethylsilyl)benzamide]
pest or weed control at 0.5 mg/pot (Ggt; [2]): 100%
inhibition at 0.1 ppm [1]: 19%
inhibition at 1 ppm [1]: 58%
inhibition at 10 ppm [1]: 75%

CN(C(=O)c1cccc(F)c1[Si](C)(C)C)C(C)(C)C [Example 5, N-(1,1-Dimethylethyl)-3-fluoro-N-methyl-2-(trimethylsilyl)benzamide]
pest or weed control at 0.5 mg/pot (Ggt; [2]): 24%
inhibition at 0.1 ppm [1]: < 0%
inhibition at 1 ppm [1]: < 0%
inhibition at 10 ppm [1]: 29%

CCNC(=O)c1sc(Br)cc1[Si](C)(C)C [Example 266, 5-Bromo-N-ethyl-3-(trimethylsilyl)-2-thiophenecarboxamide]
pest or weed control at 0.5 mg/pot (Ggt; [2]): 4%
inhibition at 0.1 ppm [1]: 21%
inhibition at 1 ppm [1]: 61%
inhibition at 10 ppm [1]: 100%

CCNC(=O)c1c(Cl)cccc1[Si](C)(C)CCl [Example 83, N-Ethyl-2-chloro-6-[(chloromethyl)dimethylsilyl]benzamide]
pest or weed control at 0.5 mg/pot (Ggt; [2]): 99%
inhibition at 0.1 ppm [1]: 100%
inhibition at 1 ppm [1]: 100%
inhibition at 10 ppm [1]: 100%

CCNC(=O)c1c(C)cccc1[Si](C)(C)C [Example 48, N-Ethyl-2-methyl-6-(trimethylsilyl)benzamide]
pest or weed control at 0.5 mg/pot (Ggt; [2]): 97%
inhibition at 0.1 ppm [1]: 74%
inhibition at 1 ppm [1]: 100%
inhibition at 10 ppm [1]: 100%

CCNC(=O)c1c(C)cccc1N(C)C(C)(C)C [Example 191, N-Ethyl-2-[(1,1-dimethylethyl)methylamino]-6-methylbenzamide]
pest or weed control at 0.5 mg/pot (Ggt; [2]): 88%
inhibition at 0.1 ppm [1]: 60%
inhibition at 1 ppm [1]: 88%
inhibition at 10 ppm [1]: 88%

CN(Cc1ccc(C(F)(F)F)cc1)C(=O)c1c(Cl)cccc1[Si](C)(C)C [Example 103, 2-Chloro-N-methyl-N-[[4-(trifluoromethyl)phenyl]-methyl]-6-(trimethylsilyl)-benzamide]
pest or weed control at 0.5 mg/pot (Ggt; [2]): 26%
inhibition at 0.1 ppm [1]: < 0%
inhibition at 1 ppm [1]: 55%
inhibition at 10 ppm [1]: 92%

CCNC(=O)c1c([Si](C)(C)C)ccc(C=O)c1Cl [Example 223, 2-Chloro-N-ethyl-3-formyl-6-(trimethylsilyl)benzamide]
pest or weed control at 0.5 mg/pot (Ggt; [2]): 82%
inhibition at 0.1 ppm [1]: 48%
inhibition at 1 ppm [1]: 93%
inhibition at 10 ppm [1]: 96%

CCN(CC)C(=O)c1c(C(F)F)ccc(F)c1[Si](C)(C)C [Example 52, N,N-Diethyl-6-(difluoromethyl)-3-fluoro-2-(trimethylsilyl)benzamide]
pest or weed control at 0.5 mg/pot (Ggt; [2]): 96%
inhibition at 0.1 ppm [1]: 53%
inhibition at 1 ppm [1]: 81%
inhibition at 10 ppm [1]: 98%

CCN(CC)C(=S)c1c(C)cccc1[Si](C)(C)C [Example 51, N,N-Diethyl-2-methyl-6-(trimethylsilyl)thiobenzamide]
pest or weed control at 0.5 mg/pot (Ggt; [2]): 77%
inhibition at 0.1 ppm [1]: < 0%
inhibition at 1 ppm [1]: 19%
inhibition at 10 ppm [1]: 100%

CCNC(=O)c1sc([Si](C)(C)C)cc1[Si](C)(C)C [Example 249, N-Ethyl-3,5-bis(trimethylsilyl)-2-thiophenecarboxamide]
pest or weed control at 0.5 mg/pot (Ggt; [2]): 60%
inhibition at 0.1 ppm [1]: 17%
inhibition at 1 ppm [1]: 48%
inhibition at 10 ppm [1]: 100%

CCN(C)C(=O)c1c(Cl)cccc1[Si](C)(C)C [Example 22, 2-Chloro-N-ethyl-N-methyl-6-(trimethylsilyl)benzamide]
pest or weed control at 0.5 mg/pot (Ggt; [2]): 91%
inhibition at 0.1 ppm [1]: 13%
inhibition at 1 ppm [1]: < 0%
inhibition at 10 ppm [1]: 46%

CC1CN(C(=O)c2c(Cl)cccc2[Si](C)(C)C)CC(C)O1 (stereo not shown) [Example 130, N-[2-Chloro-6-(trimethylsilyl)benzoyl]-2,6-dimethylmorpholine]
pest or weed control at 0.5 mg/pot (Ggt; [2]): 1%
inhibition at 0.1 ppm [1]: 16%
inhibition at 1 ppm [1]: 13%
inhibition at 10 ppm [1]: 39%

CC[C@@H](C)NC(=O)c1c(Cl)cccc1[Si](C)(C)C [Example 151, 2-Chloro-N-(1-methylpropyl)-6-(trimethylsilyl)benzamide, (r)-]
pest or weed control at 0.5 mg/pot (Ggt; [2]): 97%
inhibition at 0.1 ppm [1]: < 0%
inhibition at 1 ppm [1]: 71%
inhibition at 10 ppm [1]: 57%

CC(C)(C)OC(=O)Nc1c(Cl)cccc1[Si](C)(C)C [Example 111, [2-Chloro-6-(trimethylsilyl)phenyl]carbamic acid, 1,1-dimethylethyl ester]
pest or weed control at 0.5 mg/pot (Ggt; soil): 48%
inhibition at 0.1 ppm [1]: 14%
inhibition at 1 ppm [1]: 66%
inhibition at 10 ppm [1]: 100%

C[Si](C)(C)c1cccc(Cl)c1C(=O)NCCO [Example 27, 2-Chloro-N-(2-hydroxyethyl)-6-(trimethylsilyl)benzamide]
pest or weed control at 0.5 mg/pot (Ggt; [2]): 33%
inhibition at 0.1 ppm [1]: 15%
inhibition at 1 ppm [1]: 13%
inhibition at 10 ppm [1]: 64%

CCNC(=O)c1c([Si](C)(C)C)ccc(C(F)F)c1Cl [Example 224, 2-Chloro-3-(difluoromethyl)-N-ethyl-6-(trimethylsilyl)benzamide]
pest or weed control at 0.5 mg/pot (Ggt; [2]): 21%
inhibition at 0.1 ppm [1]: < 0%
inhibition at 1 ppm [1]: 27%
inhibition at 10 ppm [1]: 93%

CCNC(=O)c1cccc(F)c1[Si](C)(C)C [Example 12, N-Ethyl-3-fluoro-2-(trimethylsilyl)benzamide]
pest or weed control at 0.5 mg/pot (Ggt; [2]): 95%
inhibition at 0.1 ppm [1]: 29%
inhibition at 1 ppm [1]: 83%
inhibition at 10 ppm [1]: 100%

CCSC(=O)c1c(Cl)cccc1[Si](C)(C)C [Example 77, 2-Chloro-6-(trimethylsilyl)benzenecarbothioic acid, S-ethyl ester]
pest or weed control at 0.5 mg/pot (Ggt; [2]): < 0%
inhibition at 0.1 ppm [1]: 13%
inhibition at 1 ppm [1]: 47%
inhibition at 10 ppm [1]: 100%

CC[C@H](C)NC(=O)c1c(Cl)cccc1[Si](C)(C)C [Example 152, 2-Chloro-N-(1-methylpropyl)-6-(trimethylsilyl)benzamide, (s)-]
pest or weed control at 0.5 mg/pot (Ggt; [2]): 54%
inhibition at 0.1 ppm [1]: < 0%
inhibition at 1 ppm [1]: 71%
inhibition at 10 ppm [1]: 86%

CCN(CC)C(=O)c1c(CO)ccc(F)c1[Si](C)(C)C [Example 54, N,N-Diethyl-3-fluoro-6-(hydroxymethyl)-2-(trimethylsilyl)benzamide]
pest or weed control at 0.5 mg/pot (Ggt; [2]): 52%
inhibition at 0.1 ppm [1]: < 0%
inhibition at 1 ppm [1]: 2%
inhibition at 10 ppm [1]: 43%

CCCN(CCC)C(=O)c1ccccc1[Si](C)(C)C [Example 13, N,N-Dipropyl-2-(trimethylsilyl)benzamide]
pest or weed control at 0.5 mg/pot (Ggt; [2]): 13%
inhibition at 0.1 ppm [1]: 7%
inhibition at 1 ppm [1]: 17%
inhibition at 10 ppm [1]: 64%

— patent publication US6410558B1, “Fungicides for the control of take-all disease of plants” (Monsanto Technology LLC, priority 1991, dated 2002)
